# Assay results reported in patent publication US20190309074A1, “DEGLYCOSYLATED ANTIBODY SPECIFICALLY BINDING TO CLEC14A AND USES THEREOF” (WOORI TECHNOLOGIES CORPORATION, priority 2016, published 2019).
# T1: hclec14a-ECD-myc (human, UniProt Q86T13 22-397)
# T1 construct: extracellular domain; Purified protein; also called extracellular domain of human clec14a; not shown: myc tag
# T1 sequence (looked up): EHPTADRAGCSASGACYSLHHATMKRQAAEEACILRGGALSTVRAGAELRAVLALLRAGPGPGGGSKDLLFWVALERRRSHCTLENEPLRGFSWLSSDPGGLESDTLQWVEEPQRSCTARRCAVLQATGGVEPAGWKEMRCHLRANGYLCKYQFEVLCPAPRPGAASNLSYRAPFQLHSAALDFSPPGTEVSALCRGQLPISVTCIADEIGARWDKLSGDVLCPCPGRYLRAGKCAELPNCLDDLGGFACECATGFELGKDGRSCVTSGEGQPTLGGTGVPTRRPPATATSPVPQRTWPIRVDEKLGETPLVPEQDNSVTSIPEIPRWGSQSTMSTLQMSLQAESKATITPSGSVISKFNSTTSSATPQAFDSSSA
# T2: mouse CLEC14a on mouse aortic endothelial cells (MAECs) (mouse, UniProt Q8VCP9 22-459)
# T2 construct: whole, on cells
# T2 sequence (looked up): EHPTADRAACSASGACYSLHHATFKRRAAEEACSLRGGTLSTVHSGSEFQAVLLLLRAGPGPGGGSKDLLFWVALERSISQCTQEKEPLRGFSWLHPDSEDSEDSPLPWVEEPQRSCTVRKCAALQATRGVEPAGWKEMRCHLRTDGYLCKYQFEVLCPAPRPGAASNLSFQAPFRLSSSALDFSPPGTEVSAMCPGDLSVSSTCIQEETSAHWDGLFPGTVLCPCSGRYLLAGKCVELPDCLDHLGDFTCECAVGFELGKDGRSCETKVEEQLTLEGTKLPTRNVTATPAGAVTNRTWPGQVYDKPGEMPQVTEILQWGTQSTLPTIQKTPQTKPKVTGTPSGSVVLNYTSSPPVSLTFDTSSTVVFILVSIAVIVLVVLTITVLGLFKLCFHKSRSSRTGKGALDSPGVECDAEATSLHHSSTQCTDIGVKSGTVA
# T3: mclec14a-CTLD-Fc (mouse, UniProt Q8VCP9 31-172, limits assumed)
# T3 construct: domain: C-type lectin-like domain (CTLD); also called mouse clec14a-CTLD-Fc; mouse CTLD; not shown: Fc
# T3 sequence (looked up): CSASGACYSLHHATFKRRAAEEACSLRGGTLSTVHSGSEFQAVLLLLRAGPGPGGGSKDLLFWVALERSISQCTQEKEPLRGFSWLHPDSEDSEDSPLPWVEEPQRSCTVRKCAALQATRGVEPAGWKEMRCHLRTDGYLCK
# T4: human CLEC14a on human umbilical vein endothelial cells (HUVECs) (human, UniProt Q86T13 22-490)
# T4 construct: whole, on cells; also called CLEC14a on HUVEC surfaces
# T4 sequence (looked up): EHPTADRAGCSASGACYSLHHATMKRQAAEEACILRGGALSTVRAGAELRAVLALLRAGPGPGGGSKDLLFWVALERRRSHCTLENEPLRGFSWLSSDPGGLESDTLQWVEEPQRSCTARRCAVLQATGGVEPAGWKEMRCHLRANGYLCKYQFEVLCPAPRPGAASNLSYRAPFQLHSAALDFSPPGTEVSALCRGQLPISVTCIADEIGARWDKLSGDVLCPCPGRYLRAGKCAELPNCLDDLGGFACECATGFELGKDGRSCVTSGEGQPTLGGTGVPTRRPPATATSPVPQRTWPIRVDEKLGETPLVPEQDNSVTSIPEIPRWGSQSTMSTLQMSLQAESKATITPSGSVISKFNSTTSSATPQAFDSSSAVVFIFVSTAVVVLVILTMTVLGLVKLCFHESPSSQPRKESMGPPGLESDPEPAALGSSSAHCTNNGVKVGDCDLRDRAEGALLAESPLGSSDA
# Legend:
# HCT116/Beva cells = test: Matrigel plug angiogenesis assay, CD31 microvessel density; assay type: in vivo; conditions: single dose of 5 mg/kg, 14 days
# Method: (§1) Matrigel plug angiogenesis assay was conducted in the presence of deglyco C1 IgG or bevacizumab with a single dose of 5 mg/kg or the absence thereof using HCT116 human colorectal cancer cells and bevacizumab-applied HCT116 human colorectal cancer cells (HCT116 and HCT116/Beva). 14 days later, the Matrigel plug was removed, and immunohistochemistry was conducted on CD31 and microvascular markers. A microvessel density was measured by quantifying CD31 positive per field in an image each obtained by a confocal microscope.
# [1] = test system: HCT116 human colorectal cancer cells; test: as above; assay type: in vivo; conditions: single dose of 5 mg/kg, 14 days
# Method: as §1
# CFPAC-1 cells = test: tumor cell-derived Matrigel plug angiogenesis assay; assay type: in vivo, mouse; conditions: single dose of 10 mg/kg, 2 weeks, nude mice
# Method: (§2) In order to investigate in vivo effects of deglyco C1 IgG on tumor angiogenesis, tumor cell-derived Matrigel plug angiogenesis assay was conducted on thymus-removed nude mice. SNU182- and CFPAC-1 cells and U87 human glioma cells containing Matrigel were transplanted into thymus-removed nude mice in the presence of deglyco C1 IgG and bevacizumab with a single dose of 10 mg/kg or in the absence thereof. 2 weeks later, the Matrigel plug was removed and the total hemoglobulin content of each group was measured with an ELISA reader.
# SNU182 cells = test: as above; assay type: in vivo, mouse; conditions: single dose of 10 mg/kg, 2 weeks, nude mice
# Method: as §2
# U87 human glioma cells = test: as above; assay type: in vivo, mouse; conditions: single dose of 10 mg/kg, 2 weeks, nude mice
# Method: as §2
# [2] = test system: VEGF-dependent blood vessel growth in rat aorta; test: ex vivo rat aortic ring assay; conditions: cultured in combination with VEGF
# Method: In order to further investigate effects of deglyco C1 IgG on VEGF-dependent angiogenesis, ex vivo rat aortic ring assay was conducted in the presence or absence of deglyco C1 IgG and bevacizumab. Blood vessels were almost not grown in the rat aorta in endothelial basal medium (EBM), whereas most blood vessels were grown in the rat aorta under VEGF expression conditions.
# [3] = test system: VEGF-dependent microvessel formation; test: mouse Matrigel plug assay, VEGF-dependent microvessel formation; assay type: in vivo
# Method: In order to observe in vivo efficacies of deglyco C1 IgG on VEGF-dependent angiogenesis, a mouse Matrigel model was established, hemoglobin level was measured as a marker of microvessel formation, and inhibitory activities against microvessel formation of deglyco C1 IgG and bevacizumab were compared by a mouse Matrigel plug assay.
# U87 human glioma = test: U87 tumor growth; assay type: in vivo; conditions: measured weekly for one month
# hclec14a-ECD-myc [4] = biological target: T1, hclec14a-ECD-myc; test: biolayer interferometry (Octet RED96), curves at 62.5, 31.25, 15.625 and 7.8125 nM
# [5] = biological target: T2, mouse CLEC14a on mouse aortic …; test: flow cytometry on MAEC
# Method: In order to identify cross-species reactivity of the optimized antibodies, HUVECs (human umbilical vein endothelial cells) and MAECs (mouse aortic endothelial cells) were each cultured, the two cell groups were treated with 20 ug/ml of the parent antibody (original C1), deglyco C1, and clones 1, 13 and 16, and whether or not binding ability exists on the surface of two types of cells was identified by flow cytometry.
# mclec14a-CTLD-Fc = biological target: T3, mclec14a-CTLD-Fc; test: ELISA on mclec14a-CTLD-Fc
# hclec14a-ECD-myc [6] = biological target: T1, hclec14a-ECD-myc; test: biolayer interferometry, Octet RED96
# [7] = biological target: T4, human CLEC14a on human umbilical vein …; test: cell ELISA on HUVECs coated on the plate
# Method: In order to analyze action mechanisms of deglyco C1 IgG at a molecule-scale, specifically, in angiogenesis, HUVECs were treated with hclec14a-CTLD-Fc-HRP (HRP-labeled hclec14a-CTLD-Fc) in the absence or presence of an increasing concentration of parent antibody IgG or deglyco C1 IgG.
# hclec14a-ECD-myc [8] = biological target: T1, hclec14a-ECD-myc; test: ELISA, hclec14a-CTLD-Fc-HRP with hclec14a-ECD
# Method: In addition, hclec14a-CTLD-Fc-HRP was incubated together with purified hclec14a-ECD in the presence of an increasing concentration of parent antibody IgG or deglyco C1 IgG, or in the absence thereof.
molecule,measurement,setting,value
bevacizumab [reference compound],"microvessel formation (CD31 positive per field), HCT116/Beva",HCT116/Beva cells,not suppressed
same,"microvessel formation (CD31 positive per field), HCT116",[1],significantly reduced microvessel formation ability
same,"hemoglobin content, CFPAC-1-derived",CFPAC-1 cells,significantly reduced hemoglobin
same,"hemoglobin content, SNU182-derived",SNU182 cells,significantly reduced hemoglobin
same,"hemoglobin content, U87-derived",U87 human glioma cells,significantly reduced hemoglobin
same,number of blood vessels grown in the rat aorta,[2],reduced the number of blood vessels grown in the rat aorta
same,hemoglobin content (microvessel formation),[3],significantly reduced a hemoglobin content
same,tumor size of U87 cells,U87 human glioma,significantly reduces the tumor sizes
"deglyco C1 IgG (antibody, V domains shown, IgG expressed in HEK293 cells; In some assays conjugated with HRP; also called Deg C1; deglyco C1 IgG-HRP (HRP-conjugated form)) VH: EVQLVESGGGLVQPGGSLRLSCAVSGFTFSGYDMSWIRQAPGKGLEWVAGIYPDGGNTYYADSVKGRFTISRDDSKNTFYLQMNSLRAEDTAVYYCARGATWWVLGPFDYWGQGTLVTVSS VL: DIQLTQSPSSLSASVGDRVTITCTGSSSNIGRCGVTWYQQKPGKAPKLLIYADSHRPSGVPSRFSGSGSGTDFTLTISSLQPEDFATYYCGAWDDSLSGYVFGQGTKVEIKR",Kd,hclec14a-ECD-myc [4],6.07 nM
same,koff,hclec14a-ECD-myc [4],0.000297 s⁻¹
same,kon,hclec14a-ECD-myc [4],49000 M⁻¹ s⁻¹
same,binding result,[5],binds
same,binding result,mclec14a-CTLD-Fc,binds
same,Kd,hclec14a-ECD-myc [6],6 nM
"hclec14a-CTLD-Fc (Fc fusion, human, UniProt Q86T13 31-172, looked up, domain: C-type lectin-like domain (CTLD); also called human clec14a-CTLD-Fc; human CTLD; not shown: Fc) CSASGACYSLHHATMKRQAAEEACILRGGALSTVRAGAELRAVLALLRAGPGPGGGSKDLLFWVALERRRSHCTLENEPLRGFSWLSSDPGGLESDTLQWVEEPQRSCTARRCAVLQATGGVEPAGWKEMRCHLRANGYLCK",binding result,[7],binds
same,binding result,hclec14a-ECD-myc [8],binds
